Data published in patent US6166051A, “Thiol derivatives with metallopeptidase (ACE/NEP) inhibitory activity” (Zambon Group S.p.A., priority 1995, dated 2000).

Assays:
[1] = target: T1, NEP (neutral endopeptidase enzyme) (Rattus norvegicus, UniProt P07861); test: NEP-inhibitory activity in rat kidney cortex membranes ([3H][Leu5]-enkephaline degradation); format: biochemical; settings: in vitro, [3H][Leu5]-enkephaline 15 nM, 20 minutes at 30° C., pH 7.4
T1 construct: from tissue; host or cells: kidney cortex membranes of male Sprague-Dawley rats
T1 sequence (P07861 1-750): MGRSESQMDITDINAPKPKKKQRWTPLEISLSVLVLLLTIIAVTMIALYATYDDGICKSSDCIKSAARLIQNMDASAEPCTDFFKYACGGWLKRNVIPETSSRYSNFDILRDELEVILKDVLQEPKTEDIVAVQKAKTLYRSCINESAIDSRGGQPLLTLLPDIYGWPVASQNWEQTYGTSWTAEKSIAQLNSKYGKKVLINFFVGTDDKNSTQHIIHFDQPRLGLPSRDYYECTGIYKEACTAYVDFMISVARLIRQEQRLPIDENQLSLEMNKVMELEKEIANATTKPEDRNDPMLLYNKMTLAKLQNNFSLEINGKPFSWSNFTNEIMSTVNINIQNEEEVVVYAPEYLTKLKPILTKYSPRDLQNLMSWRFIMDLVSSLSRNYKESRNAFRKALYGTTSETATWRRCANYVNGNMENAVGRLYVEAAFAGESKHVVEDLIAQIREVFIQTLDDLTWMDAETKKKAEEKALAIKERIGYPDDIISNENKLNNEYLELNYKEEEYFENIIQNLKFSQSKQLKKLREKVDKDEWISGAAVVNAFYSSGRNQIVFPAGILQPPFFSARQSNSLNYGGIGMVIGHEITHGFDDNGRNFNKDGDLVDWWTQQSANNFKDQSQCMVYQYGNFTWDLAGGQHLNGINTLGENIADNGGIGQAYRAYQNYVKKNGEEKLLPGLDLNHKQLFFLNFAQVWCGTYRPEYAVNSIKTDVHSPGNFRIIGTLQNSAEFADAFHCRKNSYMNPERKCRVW
Experimental: a) NEP-inhibitory Activity
The NEP-inhibitory activity was evaluated in rat kidney cortex membranes prepared according to the procedure described by T. Maeda et al. in Biochim Biophys. Acta 1983, 731(1), 115-120.
Kidneys were removed from male Sprague-Dawley rats weighing approximately 300 g and kept at 4° C.
Kidney cortex was carefully removed, finely minced and suspended into a homogenization buffer (10 mM sodium phosphate pH 7.4 containing 1 mM MgCl2, 30 mM NaCl, 0.02% NaN3) 1:15 weight/volume.
The tissue was then cold homogenized for 30 seconds using an Ultra-Turrax homogenizer.
Approximately 10 ml of homogenate were layered over 10 ml of sucrose (41% weight/volume) and centrifuged at 31200 rpm for 30 minutes at 4° C. in a fixed angle rotor.
The membranes were collected from the buffer/sucrose interface, washed twice with 50 mM TRIS/HCl buffer (pH 7.4) and resuspended into the same buffer for the storage of aliquots at -80° C. until use.
The NEP-inhibitory activity was evaluated according to the method described by C. Llorens et aL, in Eur. J. Pharmacol., 69, (1981), 113-116, as reported hereinafter.
Aliquots of the membrane suspension prepared as above described (concentration 5 μg/ml of proteins) were preincubated in the presence of an aminopeptidase inhibitor (Bestatin--1 mM) for 10 minutes at 30° C. [^3 H][Leu^5 ]-enkephaline (15 nM) and buffer TRIS/HCl pH 7.4 (50 mM) were added in order to obtain a final volume of 100 μl.
The enzymatic reaction was stopped by adding HCl 0.1M (100 μl) after 20 minutes of incubation at 30° C.
The formation of the metabolite [^3 H]Tyr-Gly-Gly was quantified, after separation of the unreacted substrate by chromatography on polystyrene columns (Porapak Q), by measuring the relative radioactivity through liquid scintillation.
The percentage of inhibition of the metabolite formation in the membrane preparations treated with the compounds of formula I and with the comparative compounds with respect to the untreated membrane preparations was expressed as IC50 (nM) value.

[2] = target: T2, ACE (angiotensin converting enzyme) (Oryctolagus cuniculus, UniProt P12822); test: ACE-inhibitory activity (FAPGG substrate, absorbance at 340 nm); format: biochemical; settings: in vitro, ACE purified from rabbit lung, 37° C.
T2 construct: purchased SIGMA; host or cells: rabbit lung
T2 sequence (P12822 34-1310): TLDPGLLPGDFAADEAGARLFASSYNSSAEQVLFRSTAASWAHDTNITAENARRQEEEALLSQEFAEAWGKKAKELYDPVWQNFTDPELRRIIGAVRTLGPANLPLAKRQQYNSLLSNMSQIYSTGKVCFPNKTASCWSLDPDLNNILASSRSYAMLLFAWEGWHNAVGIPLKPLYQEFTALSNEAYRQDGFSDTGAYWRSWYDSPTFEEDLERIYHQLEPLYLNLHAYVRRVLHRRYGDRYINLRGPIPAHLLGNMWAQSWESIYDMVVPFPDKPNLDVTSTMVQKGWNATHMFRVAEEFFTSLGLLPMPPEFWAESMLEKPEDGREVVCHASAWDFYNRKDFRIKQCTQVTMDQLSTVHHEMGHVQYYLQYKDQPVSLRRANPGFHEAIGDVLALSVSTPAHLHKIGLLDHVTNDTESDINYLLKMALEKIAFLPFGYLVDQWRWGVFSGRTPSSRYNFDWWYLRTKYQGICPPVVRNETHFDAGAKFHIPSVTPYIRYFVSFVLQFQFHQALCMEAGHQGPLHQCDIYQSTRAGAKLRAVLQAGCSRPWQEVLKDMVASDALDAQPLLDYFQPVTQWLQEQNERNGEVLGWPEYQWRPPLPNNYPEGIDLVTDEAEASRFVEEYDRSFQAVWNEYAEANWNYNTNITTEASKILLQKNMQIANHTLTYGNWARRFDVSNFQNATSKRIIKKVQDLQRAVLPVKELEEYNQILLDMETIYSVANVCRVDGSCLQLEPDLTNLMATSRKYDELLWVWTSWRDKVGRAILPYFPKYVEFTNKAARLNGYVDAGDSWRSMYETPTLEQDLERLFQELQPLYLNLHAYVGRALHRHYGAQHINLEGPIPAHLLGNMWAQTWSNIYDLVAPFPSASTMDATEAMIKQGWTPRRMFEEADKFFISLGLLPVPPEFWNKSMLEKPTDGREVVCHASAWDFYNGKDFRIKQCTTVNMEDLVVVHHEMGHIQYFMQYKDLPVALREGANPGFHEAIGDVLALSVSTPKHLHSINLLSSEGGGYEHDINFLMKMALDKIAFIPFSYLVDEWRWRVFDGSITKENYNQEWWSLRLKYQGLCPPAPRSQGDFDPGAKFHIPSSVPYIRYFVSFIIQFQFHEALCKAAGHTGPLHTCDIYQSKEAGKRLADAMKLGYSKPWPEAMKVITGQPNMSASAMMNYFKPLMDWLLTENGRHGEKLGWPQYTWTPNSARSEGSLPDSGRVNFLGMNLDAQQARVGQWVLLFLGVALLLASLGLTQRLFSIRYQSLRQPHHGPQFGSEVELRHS
Experimental: b) ACE-inhibitory Activity
50 μM of ACE (250 μmU/ml purified by lung rabbit, EC 3.4.15.1 SIGMA) were preincubated with 50 μl of the compound of formula I or of the comparison compound or related vehicle in thermostated cuvettes at 37° C.
The reaction was started by adding 500 μl of furylacryloylphenylalanylglycylglycine 0.8 mM (FAPGG-SIGMA).
Contemporaneously, by using a Beckman DU-50 spectrophotometer provided with a program for calculating delta A/minutes and regression coefficients of the enzyme kinetics curyes, the absorbance at 340 nm was recorded in continuo for 5 minutes.
The percentage of inhibition in the preparations incubated with the compounds of formula I or with the comparative compounds with respect to the preparations incubated with the vehicle was expressed as IC50 (nM) value.

Row | IC50 [1] | IC50 [2] | NEP-inhibitory activity IC50 (nM) [1] | Structure (SMILES)
1 | 4.7 nM | 12 nM | – | O=C(N[C@@H](Cc1cscn1)C(=O)O)C(CS)Cc1ccccc1 (stereo partly drawn) [compound 4, N-(2-phenylmethyl-3-mercaptopropionyl)-(4-thiazolyl)-L-alanine]
2 | 5.5 nM | 6.5 nM | – | O=C(N[C@@H](Cc1cccs1)C(=O)O)C(CS)Cc1ccccc1 (stereo partly drawn) [compound 5, N-(2-phenylmethyl-3-mercaptopropionyl)-(2-thienyl)-L-alanine]
3 | – | – | not active | C[C@H](CS)C(=O)N1CCC[C@H]1C(=O)O [Captopril, reference compound]
4 | 7.1 nM | 23 nM | – | O=C(N[C@@H](Cc1ccccn1)C(=O)O)C(CS)Cc1ccccc1 (stereo partly drawn) [compound 6, N-(^2-phenylmethyl-3-mercaptopropionyl)-(2-pyridyl)-L-alanine]
